The values below come from patent publication US4792609A, “Indoline and 1,2,3,4-tetrahydroquinoline N(dicarboalkoxyvinyl) substituted derivatives” (Bayer Aktiengesellschaft, priority 1985, dated 1988).

Series [1] in a line: solubility at RT in cosmetic oils. The class given is physicochemical. The settings on record: for solubility at RT, groundnut/paraffin oil = 1:9: groundnut/paraffin oil = 1:9, printed as symbol.
A short description of series [2]: UV absorption (λmax, molar and specific extinction, intrinsic coloration). To be noted: for E (molar extinction coefficient): Table 1, at λmax; for specific extinction: text on Table 2, compared with compounds of formula I, in words. The series is classed as physicochemical.

Regarding `CCOC(=O)C(=CN1CCc2ccccc21)C(=O)OCC` [(1), N-(dicarboethoxyvinyl)indoline], in series [1] (printed as symbol), the “solubility at RT, groundnut oil” value was “.infin”. In series [1], the “solubility at RT, groundnut/paraffin oil = 1:9” value was “.infin”. In addition, in series [2] (Table 1), the λmax was determined as 330 nm. In addition, the E (molar extinction coefficient) in series [2] came out at 32200 L/mol/cm. In addition, in series [2] (Table 2), the “specific extinction E^1” value is recorded as 1114 and the λmax came out at 330 nm.
`CCOC(=O)C(C(=O)OCC)=C(C)N1CCc2ccccc21` [(3), N-(α-methyl-β,β-dicarboethoxyvinyl)indoline]: the “solubility at RT, groundnut oil” value in series [1] (printed as symbol) is “.infin”. Moreover, the “solubility at RT, groundnut/paraffin oil = 1:9” value in series [1] is given as “.infin”. In addition, the λmax in series [2] (Table 1) and in series [2] (Table 2) was 338 nm in each case.
Regarding `CC(C)COC(=O)C(=CN1c2ccccc2CC1C)C(=O)OCC(C)C` (stereo not drawn) [(4), N-(dicarbo-iso-butoxyvinyl)-2-methylindoline], the “solubility at RT, groundnut oil” value in series [1] (printed as symbol) is listed as “.infin”. In series [1], the “solubility at RT, groundnut/paraffin oil = 1:9” value is recorded as “.infin”. In series [2] (Table 1), this compound returned a λmax of 331 nm. The compound also displayed an E (molar extinction coefficient) in series [2] of 26200 L/mol/cm. Besides, in series [2] (Table 2), the “specific extinction E^1” value is reported as 730 and the λmax came to 331 nm.
In the case of `CCCCCCOC(=O)C(=CN1c2ccccc2CC1C)C(=O)OCCCCCC` (stereo not drawn) [(5), N-(dicarbohexyloxyvinyl)-2-methylindoline], in series [1] (printed as symbol), the “solubility at RT, groundnut oil” value is listed as “.infin”. The “solubility at RT, groundnut/paraffin oil = 1:9” value in series [1] is on record as “.infin”. In series [2] (Table 1), this compound showed a λmax of 332 nm. Besides, the E (molar extinction coefficient) in series [2] is 25300 L/mol/cm. In series [2] (Table 2), the “specific extinction E^1” value came to 582 and the λmax is given as 332 nm.
Regarding `CCOC(=O)C(=CN1CCCc2ccccc21)C(=O)OCC` [(6), N-(dicarboethoxyvinyl)-1,2,3,4-tetrahydroquinoline], in series [1] (printed as symbol), the “solubility at RT, groundnut oil” value was “.infin”. In series [1], the “solubility at RT, groundnut/paraffin oil = 1:9” value was “.infin”. Further, the λmax in series [2] (Table 1) is reported as 317 nm. In addition, the E (molar extinction coefficient) in series [2] was 26700 L/mol/cm. In series [2] (Table 2), the “specific extinction E^1” value is 878 and the λmax was 317 nm.
`COc1ccc(C(=O)c2cc(S(=O)(=O)O)c(OC)cc2O)c(O)c1` [Comparison example 1, sodium 2,2'-dihydroxy-4,4'-dimethoxybenzophenone-5-sulphonate, reference compound]: in series [2] (Table 2), the “specific extinction E^1” value came to 160 and the λmax worked out at 330 nm. In series [2], the specific extinction result is listed as “markedly lower specific extinction”.
As for `O=C(c1ccc(O)cc1O)c1ccc(O)cc1O` [Comparison example 2, 2,2',4,4'-tetrahydroxybenzophenone, reference compound], in series [1], the “solubility at RT, groundnut oil” value is on record as 0.8%. Moreover, in series [2] (Table 2), the “specific extinction E^1” value turned out to be 645 and the λmax turned out to be 351 nm. Further, in series [2], the specific extinction entry is recorded as “markedly lower specific extinction”.
As for `COc1ccc(C(=O)CC(=O)c2ccc(OC)cc2)cc1` [Comparison example 3, dianisoylmethane, reference compound], the “solubility at RT, groundnut oil” value in series [1] is listed as 1%.
Take `CCOC(=O)C(=CN1c2ccccc2CC1C)C(=O)OCC` (stereo not drawn) [Compound (2), N-(dicarboethoxyvinyl)-2-methylindoline]: the “solubility at RT, groundnut oil” value in series [1] (printed as symbol) was “.infin”. For the same compound, in series [1], the “solubility at RT, groundnut/paraffin oil = 1:9” value is given as “.infin”. For the same compound, the λmax in series [2] (Table 1) is 330 nm. In addition, the E (molar extinction coefficient) in series [2] came to 30000 L/mol/cm. In series [2] (Table 2), the “specific extinction E^1” value stood at 1008 and the λmax was found to be 330 nm.
